Experimental data from patent publication US20230227447A1, “BENZYLAMINE DERIVATIVES AS DDRS INHIBITORS” (CHIESI FARMACEUTICI S.P.A., priority 2020, published 2023).

Columns and labels:
DDR1 [1] = molecular target: T1, DDR1 (Homo sapiens, UniProt Q08345); test: DDR1 binding assay (LanthaScreen Europium Kinase Binding assay); design: purchased Carna Biosciences; settings: 5 nM DDR1, 20 nM Kinase Tracer 178, 1 hour at room temperature; Ki from IC50 by Cheng-Prusoff
Procedure: (§1) DDR1 and DDR2 binding assays were performed using Life Technologies LanthaScreen™ Europium Kinase Binding assay. The compounds were incubated with 5 nM DDR1 (Carna Biosciences) or 5 nM DDR2 (Life Technologies) for 1 hour at room temperature in white 384-well OptiPlate (PerkinElmer), containing 20 nM or 10 nM Kinase Tracer 178 respectively and 2 nM Europium labelled anti-GST antibody (Life Technologies) in assay buffer (50 mM HEPES pH 7.5, 10 mM MgCl2, 1 mM EGTA and 0.01% BRIJ35).
(§2) The ratio of fluorescence emission 665 nm/615 nm after excitation at 340 nm was obtained using the Tecan Spark 20M plate reader. IC50 values were determined in GraphPad Prism 7.0 software, using 4 parameter model: log(inhibitor) vs. response. IC50 values were converted in Ki using the Cheng-Prusoff equation (Ki=IC50/(1+[Tracer]/Kd).

DDR2 [2] = molecular target: T2, DDR2 (Homo sapiens, UniProt Q16832); test: DDR2 cell based assay (phospho-ELISA in HEK293T-DDR2 recombinant cells); design: expressed in transfected cells; host or cells: HEK293T-DDR2 recombinant cells; settings: bovine Type II Collagen 50 μg/ml
T2 sequence (Q16832 22-855): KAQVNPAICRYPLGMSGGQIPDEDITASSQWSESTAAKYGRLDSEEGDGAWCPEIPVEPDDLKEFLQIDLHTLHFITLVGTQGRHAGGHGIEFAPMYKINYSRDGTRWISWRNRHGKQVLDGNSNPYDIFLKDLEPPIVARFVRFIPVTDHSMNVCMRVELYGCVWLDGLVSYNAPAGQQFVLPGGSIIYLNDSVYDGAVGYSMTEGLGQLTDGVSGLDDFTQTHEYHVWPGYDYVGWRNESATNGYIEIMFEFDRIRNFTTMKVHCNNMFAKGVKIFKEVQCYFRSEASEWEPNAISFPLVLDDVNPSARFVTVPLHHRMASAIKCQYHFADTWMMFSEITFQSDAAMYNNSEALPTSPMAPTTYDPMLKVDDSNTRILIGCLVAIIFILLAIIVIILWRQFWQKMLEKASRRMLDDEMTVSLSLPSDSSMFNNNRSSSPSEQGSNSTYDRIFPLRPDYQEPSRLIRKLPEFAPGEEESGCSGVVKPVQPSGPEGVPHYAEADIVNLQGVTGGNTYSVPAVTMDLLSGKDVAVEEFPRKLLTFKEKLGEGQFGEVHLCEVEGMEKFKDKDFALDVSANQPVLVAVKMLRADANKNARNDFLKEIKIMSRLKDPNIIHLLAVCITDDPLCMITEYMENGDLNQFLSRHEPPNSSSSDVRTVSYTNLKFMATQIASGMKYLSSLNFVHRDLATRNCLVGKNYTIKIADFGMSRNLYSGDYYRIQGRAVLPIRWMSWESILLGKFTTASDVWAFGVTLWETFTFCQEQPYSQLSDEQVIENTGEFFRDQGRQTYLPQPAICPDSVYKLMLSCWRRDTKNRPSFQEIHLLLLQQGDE
Procedure: The inhibition of DDR2 phosphorylation by compounds was evaluated in HEK293T-DDR2 recombinant cells by phospho-ELISA assay. Briefly, HEK293T-DDR2 cells were seeded in poly-D-lysine-coated 24-well plates at a density of 250.000 cells/well and incubated for 1.5 hours at 37° C. and 5% CO2 in DMEM+10% FBS. After that, the medium was changed to serum-free DMEM and cells were incubated for 3 hours. Then. test compounds were added at different concentrations 30 minutes before stimulation with bovine Type II Collagen at 50 μg/ml for further 3 hours. For DDR2 phospho-ELISA assay (DuoSet IC Human Phospho-DDR2; R&D Systems), protein extracts were obtained by adding 60 μl/well of lysis buffer prepared according to the manufacturer's instructions. Protein concentration in the samples was determined by BCA assay and the levels of phospho-DDR2 were determined following R&D Systems indications. Raw data were normalized to maximal inhibition control (0% for normalization) and positive control (100% for normalization; cells treated with […] collagen II) and IC50 parameters were calculated in GraphPad Prism 8.0 software, using sigmoidal dose-response curve fitting with variable slope.

DDR2 [3] = molecular target: T2, DDR2; test: DDR2 binding assay (LanthaScreen Europium Kinase Binding assay); design: purchased Life Technologies; settings: 5 nM DDR2, 10 nM Kinase Tracer 178, 1 hour at room temperature; Ki from IC50 by Cheng-Prusoff
Procedure: as §1, §2

DDR1 [4] = molecular target: T1, DDR1; test: DDR1 cell based assay (PathHunter U2OS DDR1 assay); design: host or cells: U2OS-DDR1; settings: U2OS-DDR1 cells, bovine Type II Collagen 20 μg/ml, luminescence
Procedure: The inhibition of DDR1 receptor activation by compounds was evaluated by PathHunter® U2OS DDR1 assay (Eurofins DiscoverX), according to the manufacturer's instructions. Briefly, U2OS-DDR1 cells were seeded in white 384-well plates at a density of 5000 cells/well and incubated for 2 hours at 37° C. and 5% CO2. Cells were then treated with compounds at different concentrations and incubated for 30 minutes, before stimulation with bovine Type II Collagen 20 μg/ml and incubation overnight at 37° C. and 5% CO2. PathHunter Detection Reagents were prepared according to the protocol provided by DiscoverX and 20 μl/well of this mix were added to each well. After incubating the plates for 1 hour at room temperature in the dark, luminescence signal was acquired with a plate reader. Raw data were normalized to vehicle control (0% for normalization) and positive control (100% for normalization; cells treated with 20 μg/ml collagen II) and IC50 parameters were calculated in GraphPad Prism 8.0 software, using sigmoidal dose-response curve fitting with variable slope.

T1 sequence (Q08345 19-913): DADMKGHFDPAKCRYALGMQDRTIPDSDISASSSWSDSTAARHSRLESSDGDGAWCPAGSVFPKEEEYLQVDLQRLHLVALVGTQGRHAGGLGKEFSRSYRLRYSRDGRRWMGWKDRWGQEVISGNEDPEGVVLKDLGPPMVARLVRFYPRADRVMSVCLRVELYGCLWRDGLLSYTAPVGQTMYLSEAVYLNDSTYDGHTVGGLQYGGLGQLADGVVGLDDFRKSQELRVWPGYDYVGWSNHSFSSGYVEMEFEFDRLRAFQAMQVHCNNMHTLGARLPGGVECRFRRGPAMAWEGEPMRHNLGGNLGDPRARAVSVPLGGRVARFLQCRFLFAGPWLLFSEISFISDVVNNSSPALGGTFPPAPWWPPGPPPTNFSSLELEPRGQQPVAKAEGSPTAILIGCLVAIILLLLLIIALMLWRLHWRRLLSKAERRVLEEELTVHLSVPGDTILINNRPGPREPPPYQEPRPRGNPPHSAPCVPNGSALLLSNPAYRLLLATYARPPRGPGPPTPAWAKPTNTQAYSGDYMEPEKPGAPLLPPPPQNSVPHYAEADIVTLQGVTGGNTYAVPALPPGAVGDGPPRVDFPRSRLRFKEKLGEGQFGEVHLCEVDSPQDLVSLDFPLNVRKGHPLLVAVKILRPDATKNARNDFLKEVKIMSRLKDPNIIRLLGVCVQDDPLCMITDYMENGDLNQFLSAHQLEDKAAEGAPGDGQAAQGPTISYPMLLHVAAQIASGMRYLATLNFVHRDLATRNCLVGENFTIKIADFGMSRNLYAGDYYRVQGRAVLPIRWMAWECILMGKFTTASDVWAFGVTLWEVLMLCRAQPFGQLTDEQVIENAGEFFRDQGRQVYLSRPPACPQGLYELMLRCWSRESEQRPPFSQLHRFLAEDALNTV

Ki (DDR1 [1]) [nM] | IC50 (DDR2 [2]) [nM] | Ki (DDR2 [3]) [nM] | IC50 (DDR1 [4]) [nM] | SMILES
< 30 | < 10 | < 30 | < 10 | Cc1ccc(C(=O)Nc2cccc(C(F)(F)F)c2)cc1CNc1cccnc1 [Example 34, 4-methyl-3-((pyridin-3-ylamino)methyl)-N-(3-(trifluoromethyl)phenyl)benzamide]
< 30 | 10 to 15 | < 30 | < 10 | Cc1ccc(C(=O)Nc2cccc(OC(F)(F)F)c2)cc1CNc1cncnc1 [Example 37, 4-methyl-3-((pyrimidin-5-ylamino)methyl)-N-(3-(trifluoromethoxy)phenyl)benzamide]
< 30 | < 10 | < 30 | < 10 | Cc1ccc(C(=O)Nc2cccc(C(F)(F)F)c2)cc1CNc1cncnc1 [Example 32, 4-methyl-3-((pyrimidin-5-ylamino)methyl)-N-(3-(trifluoromethyl)phenyl)benzamide]
< 30 | 10 to 15 | < 30 | < 10 | Cc1cn(-c2cc(NC(=O)c3ccc(C)c(CNc4cncnc4)c3)cc(C(F)(F)F)c2)cn1 [Example 20, 4-methyl-N-(3-(4-methyl-1H-imidazol-1-yl)-5-(trifluoromethyl)phenyl)-3-((pyrimidin-5-ylamino)methyl)benzamide]
< 30 | < 10 | < 30 | < 10 | COc1ccc(NC(=O)c2ccc(C)c(CNc3cncnc3)c2)cc1C(F)(F)F [Example 31, N-(4-methoxy-3-(trifluoromethyl)phenyl)-4-methyl-3-((pyrimidin-5-ylamino)methyl)benzamide]
< 30 | 10 to 15 | < 30 | < 10 | O=C(Nc1cccc(OC(F)(F)F)c1)c1ccc(F)c(CNc2cnc3[nH]ccc3c2)c1 [Example 38, 3-(((1H-pyrrolo[2,3-b]pyridin-5-yl)amino)methyl)-4-fluoro-N-(3-(trifluoromethoxy)phenyl)benzamide]
< 30 | < 10 | < 30 | < 10 | Cn1ccc(-c2cncc(NCc3cc(C(=O)Nc4cccc(OC(F)(F)F)c4)ccc3F)c2)n1 [Example 35, 4-fluoro-3-(((5-(1-methyl-1H-pyrazol-3-yl)pyridin-3-yl)amino)methyl)-N-(3-(trifluoromethoxy)phenyl)benzamide]
